Experimental data reported in patent US11021481B2, “Substituted isoindolin-1-ones and 2,3-dihydro-1h-pyrrolo[3,4-c]pyridin-1-ones as HPK1 antagonists” (Nimbus Saturn, Inc., priority 2019, dated 2021).

molecular target: HPK1 (Homo sapiens (Human), UniProt Q92918); experiment: HPK1 biochemical enzyme assay (microfluidic mobility shift assay); details: 1.5 nM HPK1, ATP 1 mM final, 30 min preincubation, 60 min at RT, Caliper EZ Reader; read-out: HPK1 1000UMATP caliper IC50
Outline: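 Mobility shift readout of HPK1 activity after a 60 min RT reaction with 1 mM ATP, 1 μM substrate and 5 mM MgCl2. Enzyme/substrate mix was first exposed to compounds for 30 min, using ten-point curves topping at 3 μM final.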

Sequence of HPK1 (Q92918 whole entry): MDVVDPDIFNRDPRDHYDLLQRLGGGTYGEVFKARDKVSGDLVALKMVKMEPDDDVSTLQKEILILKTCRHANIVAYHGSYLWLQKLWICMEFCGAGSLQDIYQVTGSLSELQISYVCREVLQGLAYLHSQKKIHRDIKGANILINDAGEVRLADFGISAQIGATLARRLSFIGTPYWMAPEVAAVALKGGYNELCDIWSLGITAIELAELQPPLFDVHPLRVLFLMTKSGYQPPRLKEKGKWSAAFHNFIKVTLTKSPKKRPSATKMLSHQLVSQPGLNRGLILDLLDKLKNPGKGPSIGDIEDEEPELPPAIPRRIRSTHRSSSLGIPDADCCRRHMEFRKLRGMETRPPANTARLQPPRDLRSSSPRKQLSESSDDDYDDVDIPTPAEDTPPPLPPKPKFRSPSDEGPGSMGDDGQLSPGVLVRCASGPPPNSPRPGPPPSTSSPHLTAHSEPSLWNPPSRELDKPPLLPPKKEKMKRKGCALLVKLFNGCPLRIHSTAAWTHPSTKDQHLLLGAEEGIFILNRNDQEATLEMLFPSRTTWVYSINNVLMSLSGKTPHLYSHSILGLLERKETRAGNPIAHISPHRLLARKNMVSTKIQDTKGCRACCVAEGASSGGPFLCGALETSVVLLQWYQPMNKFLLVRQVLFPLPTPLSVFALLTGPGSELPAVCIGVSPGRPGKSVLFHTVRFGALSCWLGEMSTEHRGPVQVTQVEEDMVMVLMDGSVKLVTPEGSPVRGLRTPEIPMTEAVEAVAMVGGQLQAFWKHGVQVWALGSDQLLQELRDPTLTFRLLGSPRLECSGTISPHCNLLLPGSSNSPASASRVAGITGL

Row | SMILES | IC50
1 | CNCc1nc(Nc2cnc(-c3ccnc4c3ccn4C)c3c2C(=O)NC3)ccc1[C@@H]1CCOC1 (single isomer, unassigned) [I-813] | < 100 nM
2 | CC(C)(O)[C@H]1CCCN(c2ccc(Nc3cnc(-c4cnn5c4CCCC5)c4c3C(=O)NC4)nc2)C1 [I-355, (S)-7-((5-(3-(2-hydroxy-propan-2-yl)piperidin-1-yl)pyridin-2-yl)amino)-4-(4,5,6,7-tetrahydropyra-zolo[1,5-a]pyridin-3-yl)-2,3-dihydro-1H-pyrrolo[3,4-c]pyridin-1-one] | < 100 nM
3 | Cn1ccc2c(-c3ccc(-n4ccc(N5CCC[C@@](C)(O)C5)n4)c4c3CNC4=O)ccnc21 (single isomer, unassigned) [I-305] | > 1000 nM
4 | Cn1ccc2c(-c3ncc(Nc4ccc([C@H]5CCOC5)cn4)c4c3CNC4=O)ccnc21 [I-217, (R)-4-(1-methyl-1H-pyrrolo[2,3-b]pyridin-4-yl)-7-((5-(tetrahydro-furan-3-yl)pyridin-2-yl)amino)-2,3-dihydro-1H-pyrrolo[3,4-c]pyridin-1-one] | < 100 nM
5 | CN(C)Cc1nc(Nc2ccc(-c3cnc4cc(F)ccn34)c3c2C(=O)NC3)ccc1N1CCO[C@@H](C(C)(C)O)C1 [I-775, (R)-7-((6-((dimethylamino)-methyl)-5-(2-(2-hydroxypropan-2-yl)morpho-lino)pyridin-2-yl)amino)-4-(7-fluoroimidazo [1,2-a]pyridin-3-yl)isoindolin-1-one] | < 100 nM
6 | COc1cc(Nc2cnc(-c3ccnc4c3ccn4C)c3c2C(=O)NC3)nc(N2CC[C@@H]3CNC[C@@H]32)c1 [I-682, 7-((6-((3aR,6aR)-hexahydro-pyrrolo[3,4-b]pyrrol-l(2H)-yl)-4-methoxypyridin-2-yl)amino)-4-(1-methyl-1H-pyrrolo[2,3-b]pyridin-4-yl)-2,3-dihydro-1H-pyrrolo[3,4-c]pyridin-1-one] | 100 to 1000 nM
7 | Cc1cccc2c(-c3ccc(Nc4ccc(C5CCOC5)c(CN(C)C)n4)c4c3CNC4=O)cnn12 (stereo in doubt) [I-710, (R)-7-((6-((dimethylamino)-methyl)-5-(tetrahydrofuran-3-yl)pyridin-2-yl)amino)-4-(7-methylpyra-zolo[1,5-a]pyridin-3-yl)isoindolin-1-one] | < 100 nM
8 | CN(C)Cc1nc(Nc2ccc(-c3cnc4cc(F)ccn34)c3c2C(=O)NC3)ccc1N1CCOCC12CC2 [I-525, 7-[[6-[(dimethylamino)-methyl]-5-(7-oxa-4-azaspiro[2.5]octan-4-yl)-2-pyridyl]amino]-4-(7-fluoroimidazo [1,2-a]pyridin-3-yl)isoindolin-1-one] | < 100 nM
9 | Cn1ccc2c(-c3ncc(Nc4cncc(N5CC[C@@H]6CNC[C@@H]65)n4)c4c3CNC4=O)ccnc21 (single isomer, unassigned) [I-661] | 100 to 1000 nM
10 | O=C1NCc2c(-c3cnc4cnccn34)ccc(Nc3ccc(N4[C@@H]5CC[C@H]4C[C@@H](O)C5)cn3)c21 [I-304, 7-((5-((1R,3r,5S)-3-hydroxy-8-azabicyclo [3,2.1]octan-8-yl)pyridin-2-yl)amino)-4-(imidazo[1,2-a]pyrazin-3-yl)isoindolin-1-one] | < 100 nM
11 | Cn1nc(Nc2ccc(-c3cnc4cc(F)ccn34)c3c2C(=O)NC3)cc1C1(O)CCOCC1 [I-566, 4-(7-fluoroimidazo [1,2-a]pyridin-3-yl)-7-((5-(4-hydroxytetrah-ydro-2H-pyran-4-yl)-1-methyl-1H-pyrazol-3-yl)amino)isoin-dolin-1-one] | < 100 nM
12 | O=C1NCc2c(-c3cnc4cc(F)ccn34)ccc(Nc3ccc([C@H]4CCOC4)c(CN4CC[C@H](F)C4)n3)c21 (stereo in doubt) [I-735, 4-(7-fluoroimidazo [1,2-a]pyridin-3-yl)-7-((6-(((S)-3-fluoropyrrol-idin-1-yl)methyl)-5-((S)-tetrahydrofuran-3-yl)pyridin-2-yl)amino)isoin-dolin-1-one] | < 100 nM
13 | CN(C)Cc1nc(Nc2cnc(-c3ccnc4c3ccn4C)c3c2C(=O)NC3)ccc1N1CCOC2(CC2)C1 [I-839, 7-((6-((dimethylamino)-methyl)-5-(4-oxa-7-azaspiro[2.5]octan-7-yl)pyridin-2-yl)amino)-4-(1-methyl-1H-pyrrolo[2,3-b]pyridin-4-yl)-2,3-dihydro-1H-pyrrolo[3,4-c]pyridin-1-one] | < 100 nM

Further lines, results first:

Row | IC50 | SMILES
14 | < 100 nM | CC(C)N1CCN(c2ccc(Nc3cnc(-c4ccnc5c4ccn5C)c4c3C(=O)NC4)nc2)CC1 [I-319, 7-((5-(4-isopropylpiperazin-1-yl)pyridin-2-yl)amino)-4-(1-methyl-1H-pyrrolo[2,3-b]pyridin-4-yl)-2,3-dihydro-1H-pyrrolo[3,4-c]pyridin-1-one]
15 | > 1000 nM | O=C1NCc2c(-c3cnc4cc(F)ccn34)ccc(Nc3cccc(N4CCCC4=O)n3)c21 [I-340, 4-(7-fluoroimidazo [1,2-a]pyridin-3-yl)-7-((6-(2-oxopyrrolidin-1-yl)pyridin-2-yl)amino)isoin-dolin-1-one]
16 | < 100 nM | CN1CCN(CC2(O)CCN(c3ccc(Nc4cnc(-c5cnc6ccccn56)c5c4C(=O)NC5)nc3)CC2)CC1 [I-648, 7-((5-(4-hydroxy-4-((4-methylpiperazin-1-yl)methyl)pip-eridin-1-yl)pyridin-2-yl)amino)-4-(imidazo[1,2-a]pyridin-3-yl)-2,3-dihydro-1H-pyrrolo[3,4-c]pyridin-1-one]
17 | 100 to 1000 nM | Cn1cc2c(-c3ccc(Nc4ccc(N5CCC(O)CC5)cn4)c4c3CNC4=O)cnc-2cn1 [I-422, 7-((5-(4-hydroxy-piperidin-1-yl)pyridin-2-yl)amino)-4-(5-methyl-5H-pyrrolo[2,3-d]pyridazin-3-yl)isoindolin-1-one]
18 | < 100 nM | O=C1NCc2c(-c3cnc4cc(F)ccn34)ccc(Nc3cccc(N4CC[C@@H]5CNC[C@@H]54)n3)c21 [I-498, 4-(7-fluoroimidazo [1,2-a]pyridin-3-yl)-7-((6-((3aR,6aR)-hexahydropy-rrolo[3,4-b]pyrrol-1(2H)-yl)pyridin-2-yl)amino)isoin-dolin-1-one]
19 | < 100 nM | CN[C@H]1CCCN(c2ccc(Nc3ccc(-c4ccnc5c4ccn5C)c4c3C(=O)NC4)nc2)C1 [I-97, 7-[[5-[(3S)-3-(methylamino)-1-piperidyl]-2-pyridyl]amino]-4-(1-methylpyrrolo [2,3-b]pyridin-4-yl)isoindolin-1-one]
20 | < 100 nM | Cn1ccc2c(-c3c(F)cc(Nc4ccc(N5CCC(O)CC5)cn4)c4c3CNC4=O)ccnc21 [I-197, 5-fluoro-7-[[5-(4-hydroxy-1-piperidyl)-2-pyridyl]amino]-4-(1-methylpyrrolo[2,3-b]pyridin-4-yl)isoindolin-1-one]
21 | < 100 nM | COC[C@H]1CN(c2ccc(Nc3cnc(-c4ccnc5c4ccn5C)c4c3C(=O)NC4)nc2)CC[C@@H]1O [I-414]
22 | < 100 nM | O=C1NCc2c(-c3ccc4cnccn34)ccc(Nc3ccc(N4CCC(O)CC4)cn3)c21 [I-369, 7-((5-(4-hydroxypiper-idin-1-yl)pyridin-2-yl)amino)-4-(pyrrolo[1,2-a]pyrazin-6-yl)isoindolin-1-one]
23 | < 100 nM | CN1CCN(c2ccc(Nc3cnc(-c4cnc5ccccn45)c4c3C(=O)NC4)nc2)CC1 [I-56, 4-(Imidazo[1,2-a]pyridin-3-yl)-7-((5-(4-methylpiperazin-1-yl)pyridin-2-yl)amino)-2,3-dihydro-1H-pyrrolo[3,4-c]pyridin-1-one]
24 | < 100 nM | CC1(CO)CCN(c2ccc(Nc3ccc(-c4cnc5cc(F)ccn45)c4c3C(=O)NC4)nc2)CC1 [I-433, 4-(7-fluoroimidazo [1,2-a]pyridin-3-yl)-7-((5-(4-(hydroxymeth-yl]-4-methylpiperidin-1-yl)pyridin-2-yl)amino)isoin-dolin-1-one]
25 | 100 to 1000 nM | COc1ccc2c(-c3ncc(Nc4ccc(N5CCN(C)CC5)cn4)c4c3CNC4=O)c[nH]c2c1 [I-4, 4-(6-methoxy-1H-indol-3-yl)-7-[[5-(4-methylpiperazin-1-yl)-2-pyridyl]amino]-2,3-dihydropyrrolo [3,4-c]pyridin-1-one]
26 | < 100 nM | COc1cccn2c(-c3ccc(Nc4ccc(N5CCC(O)CC5)cn4)c4c3CNC4=O)cnc12 [I-166, 7-[[5-(4-hydroxy-1-piperidyl)-2-pyridyl]amino]-4-(8-methoxy-imidazo[1,2-a]pyridin-3-yl)isoindolin-1-one]
27 | < 100 nM | O=C1NCc2c(-c3cnc4cc(F)ccn34)ccc(Nc3ccc(N4CC[C@H](F)[C@H](O)C4)cn3)c21 [I-359, 7-((5-((3R,4S)-4-fluoro-3-hydroxy-piperidin-1-yl)pyridin-2-yl)amino)-4-(7-fluoroimidazo [1,2-a]pyridin-3-yl)isoindolin-1-one]
